Laboratory results from patent US20240246946A1, “MODULATORS OF TREX1” (Constellation Pharmaceuticals, Inc., priority 2021, published 2024).

What was measured:
full length human TREX1 [1] = target: T1, full length human TREX1 (Homo sapiens, UniProt Q9NSU2); test: hTREX1 Biochemical Assay (fluorescence, dsDNA substrate degradation); settings: biochemical, read-out: hTREX1 IC50
T1 construct: N-terminally His-Tev tagged full length human TREX1; made in house; host or cells: E. coli
T1 sequence (Q9NSU2 1-314): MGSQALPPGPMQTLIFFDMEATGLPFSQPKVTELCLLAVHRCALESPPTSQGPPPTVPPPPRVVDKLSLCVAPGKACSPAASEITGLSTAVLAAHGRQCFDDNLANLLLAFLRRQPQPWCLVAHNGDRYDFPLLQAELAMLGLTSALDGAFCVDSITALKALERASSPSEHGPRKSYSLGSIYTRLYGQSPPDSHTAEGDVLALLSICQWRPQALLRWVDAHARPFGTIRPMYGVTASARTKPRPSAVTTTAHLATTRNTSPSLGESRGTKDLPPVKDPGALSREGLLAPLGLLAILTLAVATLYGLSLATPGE
In short: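 Cleavage of 60 nM TEX615/quencher-labelled dsDNA in pH 7.4 Tris buffer with 5 mM MgCl2, 1.0% DMSO, run 18 hours at 25° C, EDTA-quenched; fluorescence read-out.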

hTREX1 = target: T2, hTREX1 (Homo sapiens, UniProt Q9NSU2); test: hTREX1 HCT116 Cell Assay (HCT116 dual cells, Lucia luciferase reporter of Type I interferon induction); format: cell-based; settings: TREX1i 4 h before pBR322/BstNI transfection, read after 48 h
T2 construct: host or cells: HCT116 dual cells
T2 sequence (Q9NSU2 1-314): T1 sequence (Q9NSU2 1-314)
In short: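 HCT116 dual cells carrying an ISRE-type STAT1/STAT2-driven secreted Lucia luciferase reporter were pretreated with TREX1 inhibitor for 4 h (≤0.1% DMSO), then transfected with pBR322/BstNI DNA (100 ng/well, Lipofectamine LTX). Luciferase in medium read after 48 h at 37 °C.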

full length human TREX1 [2] = target: T1, full length human TREX1; test: TREX1 Kinetics Assays (TR-FRET association and dissociation, global fit with Kintek Explorer); format: binding; settings: for Kd / residence time: hTREX1, TR-FRET kinetics; for koff / kon: hTREX1, TR-FRET, 25° C., global fit
Method: Compound binding kinetics were assessed using a pair of TR-FRET assays which measure the proportion of protein bound to a biotinylated TREX1 inhibitor (“probe”).
N-terminally His-Tev tagged full length human TREX1 (expressed in E. coli and purified in house), complexed with Eu-W1024-anti-6×His (“Eu”; PerkinElmer) in reaction buffer (50 mM Tris, 150 mM NaCl, 2 mM DTT, 0.1 mg/mL BSA, 0.01% (w/v) Tween-20, 5 mM MgCl2, pH 7.4) was combined with an equal volume of test compound in reaction buffer and incubated at 25° C. Concentrations at this stage were 1 nM TREX1/Eu complex, and four concentrations of compound (diluted from 10 mM stocks in 100% DMSO). At defined time points, 18 μL of this mixture was withdrawn and combined with 2 μL probe to a final concentration of 1 μM probe. After incubating for 30 seconds, 18 μL was withdrawn and combined with 2 μL streptavidin-allophycocyanin (“SA-APC”; PerkinElmer) to a final concentration of 1.5 μM SA-APC. Fifteen μL of this mixture was then immediately transferred to a 384-well Black ProxiPlate Plus (PerkinElmer) and read in an EnVision plate reader (PerkinElmer) measuring fluorescence at 615 nm and 665 nm following excitation w/337 nm laser light. Final concentrations were 0.8 nM TREX1/Eu complex, 0.9 μM probe, and 1.5 μM SA-APC.
N-terminally His-Tev tagged full length human TREX1 (expressed in E. coli and purified in house), complexed with Eu-W1024-anti-6×His (“Eu”; PerkinElmer) in reaction buffer (50 mM Tris, 150 mM NaCl, 2 mM DTT, 0.1 mg/mL BSA, 0.01% (w/v) Tween-20, 5 mM MgCl2, pH 7.4) was combined with an equal volume of test compound in reaction buffer. Concentrations at this stage were 100 nM TREX1/Eu complex and 100 nM test compound (diluted from 10 mM stocks in 100% DMSO). Following an equilibration period of at least an hour at 25° C., this mixture was diluted 100-fold into reaction buffer containing 1 μM probe, and incubated at 25° C. At defined time points, 36 μL of the reaction mixture was withdrawn and combined with 4 μL streptavidin-allophycocyanin (“SA-APC”; PerkinElmer) to a final concentration of 1.5 μM SA-APC. Fifteen μL of this mixture was then immediately transferred to duplicate wells of a 384-well Black ProxiPlate Plus (PerkinElmer) and read in an EnVision plate reader (PerkinElmer) measuring fluorescence at 615 nm and 665 nm following excitation w/337 nm laser light.
The TR-FRET signal, a ratio of 665 nm/615 nm emitted light, was converted to fraction enzyme bound to test compound by normalizing to low signal (no enzyme or test compound) and high signal (no test compound) controls. Data from both association and dissociation experiments were fitted globally using Kintek Explorer software, which computes the rate constants directly.

Row | IC50 (full length human TREX1 [1]) | IC50 (hTREX1) | Kd (full length human TREX1 [2]) | residence time (full length human TREX1 [2]) | koff (full length human TREX1 [2]) | kon (full length human TREX1 [2]) | SMILES
1 | < 1 nM | < 10 nM | 0.231 nM | 368 min | 4.53e-05 s⁻¹ | 197000 M⁻¹ s⁻¹ | CC(c1nc(C(=O)Nc2cnoc2)c(O)c(=O)n1C)C(c1cnn(C)c1)c1ccccc1C#N (single isomer, unassigned) [Example 2 D1E1]
2 | < 1 nM | < 10 nM | 0.036 nM | 613 min | 2.72e-05 s⁻¹ | 757000 M⁻¹ s⁻¹ | CC(c1nc(C(=O)Nc2cnoc2)c(O)c(=O)n1C)C(c1ccccc1C#N)c1cn(C)nc1C#N (single isomer, unassigned) [Example 10 D1E1]
3 | < 1 nM | < 10 nM | 0.209 nM | 370 min | 4.5e-05 s⁻¹ | 215000 M⁻¹ s⁻¹ | CCn1cc(C(c2ccccc2C#N)C(C)c2nc(C(=O)Nc3cnoc3)c(O)c(=O)n2C)cn1 (single isomer, unassigned) [Example 13 D1E1]
4 | < 1 nM | < 10 nM | 0.245 nM | 310 min | 5.38e-05 s⁻¹ | 220000 M⁻¹ s⁻¹ | CC(c1nc(C(=O)Nc2cnoc2)c(O)c(=O)n1C)C(c1cnn(C)c1)c1cc(F)ccc1C#N (single isomer, unassigned) [Example 14 D1E2]
5 | < 1 nM | < 10 nM | 0.245 nM | 461 min | 3.62e-05 s⁻¹ | 147000 M⁻¹ s⁻¹ | CCn1cc(C(c2ccc(F)cc2C#N)C(C)c2nc(C(=O)Nc3cnoc3)c(O)c(=O)n2C)cn1 (single isomer, unassigned) [Example 16 D1E1]
6 | < 1 nM | < 10 nM | 0.28 nM | 353 min | 4.72e-05 s⁻¹ | 168000 M⁻¹ s⁻¹ | CCn1cc(C(c2cc(F)ccc2C#N)C(C)c2nc(C(=O)Nc3cnoc3)c(O)c(=O)n2C)cn1 (single isomer, unassigned) [Example 17 D1E2]
7 | < 1 nM | < 10 nM | 0.614 nM | 256 min | 6.5e-05 s⁻¹ | 106000 M⁻¹ s⁻¹ | CC(c1nc(C(=O)Nc2cnoc2)c(O)c(=O)n1C)C(c1cnn(CC(F)(F)F)c1)c1ccccc1C#N (single isomer, unassigned) [Example 22 D1E1]
8 | < 1 nM | 10 to 100 nM | 0.529 nM | 290 min | 5.73e-05 s⁻¹ | 108000 M⁻¹ s⁻¹ | CC(c1nc(C(=O)Nc2cnoc2)c(O)c(=O)n1C)C(c1cnn(CC2CC2)c1)c1ccccc1C#N (single isomer, unassigned) [Example 23 D1E2]
9 | < 1 nM | 10 to 100 nM | 0.405 nM | 269 min | 6.2e-05 s⁻¹ | 153000 M⁻¹ s⁻¹ | CC(c1nc(C(=O)Nc2cnoc2)c(O)c(=O)n1C)C(c1cnn(C)c1)c1cc(Cl)ccc1C#N (single isomer, unassigned) [Example 26 D1E2]
10 | < 1 nM | < 10 nM | 0.351 nM | 290 min | 5.73e-05 s⁻¹ | 163000 M⁻¹ s⁻¹ | CC(c1nc(C(=O)Nc2cnoc2)c(O)c(=O)n1C)C(c1cnn(C(F)F)c1)c1ccccc1C#N (single isomer, unassigned) [Example 38 D1E1]
11 | < 1 nM | < 10 nM | 0.255 nM | 483 min | 3.45e-05 s⁻¹ | 135000 M⁻¹ s⁻¹ | Cc1cncc(C(c2ccccc2C#N)C(C)c2nc(C(=O)Nc3cnoc3)c(O)c(=O)n2C)n1 (single isomer, unassigned) [Example 53 D1E2]
12 | < 1 nM | < 10 nM |  | 431 min | 3.87e-05 s⁻¹ |  | Cc1nn(C)cc1C(c1cc(F)ccc1C#N)C(C)c1nc(C(=O)Nc2cnoc2)c(O)c(=O)n1C (single isomer, unassigned) [Example 57 D1E2]
13 | < 1 nM | 10 to 100 nM | 0.338 nM | 215 min | 7.77e-05 s⁻¹ | 230000 M⁻¹ s⁻¹ | CC(c1nc(C(=O)Nc2cnoc2)c(O)c(=O)n1C)C(c1cnn(C)c1)c1ccccc1Cl (single isomer, unassigned) [Example 77 D1E1]
14 | < 1 nM | < 10 nM |  | 413 min | 4.03e-05 s⁻¹ |  | Cc1nn(C)c(C)c1C(c1ccccc1C#N)C(C)c1nc(C(=O)Nc2cnoc2)c(O)c(=O)n1C (single isomer, unassigned) [Example 78 D1E1]
15 | < 1 nM | < 10 nM |  | 714 min | 2.33e-05 s⁻¹ |  | Cc1ncc(C(c2ccccc2C#N)C(C)c2nc(C(=O)Nc3cnoc3)c(O)c(=O)n2C)nc1C (single isomer, unassigned) [Example 81 D1E2]
16 | < 1 nM | < 10 nM |  | 1820 min | 9.17e-06 s⁻¹ |  | CC(c1nc(C(=O)Nc2cnoc2)c(O)c(=O)n1C)C(c1ccccc1C#N)c1cn(C)nc1F (single isomer, unassigned) [Example 91 D1E1]
17 | < 1 nM | < 10 nM |  | 662 min | 2.52e-05 s⁻¹ |  | CC(c1nc(C(=O)Nc2cnoc2)c(O)c(=O)n1C)C(c1cnn(C(C)C)c1)c1ccccc1C#N (single isomer, unassigned) [Example 105 D1E2]
18 | < 1 nM | 10 to 100 nM |  | 461 min | 3.62e-05 s⁻¹ |  | Cc1cc(C(c2cc(F)ccc2C#N)C(C)c2nc(C(=O)Nc3cnoc3)c(O)c(=O)n2C)n(C)n1 (single isomer, unassigned) [Example 111 D1E2]
19 | < 1 nM | < 10 nM |  | 515 min | 3.23e-05 s⁻¹ |  | Cc1cnc(C(c2cc(F)ccc2C#N)C(C)c2nc(C(=O)Nc3cnoc3)c(O)c(=O)n2C)cn1 (single isomer, unassigned) [Example 115 D1E2]
20 | < 1 nM | < 10 nM |  | 1450 min | 1.15e-05 s⁻¹ |  | Cc1nc(C)c(C(c2ccccc2C#N)C(C)c2nc(C(=O)Nc3cnoc3)c(O)c(=O)n2C)nc1C (single isomer, unassigned) [Example 122 D1E1]
21 | < 1 nM | 10 to 100 nM |  | 741 min | 2.25e-05 s⁻¹ |  | Cc1ncc(C(c2cc(F)ccc2C#N)C(C)c2nc(C(=O)Nc3cnoc3)c(O)c(=O)n2C)nc1C (single isomer, unassigned) [Example 124 D1E2]
22 | < 1 nM | < 10 nM |  | 543 min | 3.07e-05 s⁻¹ |  | Cc1ncc(C(c2ccccc2Cl)C(C)c2nc(C(=O)Nc3cnoc3)c(O)c(=O)n2C)nc1C (single isomer, unassigned) [Example 125 D1E2]
23 | < 1 nM | 10 to 100 nM |  | 505 min | 3.3e-05 s⁻¹ |  | CCn1c(C(C)C(c2cnn(C)c2)c2ccccc2C#N)nc(C(=O)Nc2cnoc2)c(O)c1=O (single isomer, unassigned) [Example 149 D1E2]
24 | < 1 nM | < 10 nM |  | 515 min | 3.23e-05 s⁻¹ |  | C[C@H](c1nc(C(=O)Nc2cnoc2)c(O)c(=O)n1C)[C@@H](c1cc(F)ccc1C#N)c1cn(C)nc1C#N [Example 59 D1E2]
